Where a name gives a salt, the structure may show the parent alone.
Columns and labels:
plasmin = plasmin (Homo sapiens (Human), UniProt P00747); assay: Inhibition constants for plasmin, determined in analogy to uPA; assay type: biochemical
thrombin = thrombin (Homo sapiens (Human), UniProt P00734); assay: Inhibition constants for thrombin, determined in analogy to uPA; assay type: biochemical
uPA = uPA (Homo sapiens (Human), UniProt P00749); assay: Inhibition constants for uPA, determined as in Stürzebecher et al. 1997; assay type: biochemical
trypsin [1] = assay: Inhibition constants for trypsin, determined in analogy to uPA; assay type: biochemical
sc urokinase = sc urokinase (Homo sapiens (Human), UniProt P00749); assay: Inhibiting urokinase with 4-amidinobenzylamide compounds (chromogenic substrate Bzl-βAla-Gly-Arg-pNA, Dixon Ki); assay type: biochemical; settings: 25° C., pH 8.0, means of at least three determinations
Source text: Determining the Inhibitory Effect
The Ki values are the means of at least three determinations.

trypsin [2] = molecular target: trypsin (Bos taurus, UniProt P00760); assay: Inhibition constants for trypsin, determined in analogy to uPA; assay type: biochemical
[3] = Elimination (β phase) half-life in rats after intravenous administration, plasma levels by HPLC; settings: for elimination (β phase) half-life t1/2: rats, intravenous administration 1 mg/kg; for half-life: female, Wistar, rat, plasma, iv, 1 mg/kg
Experimental: Female Wistar rats (240-300 g body weight) were anesthetized (ethylurethane, 2.5 g/ml in NaCl, 0.5 ml/100 g rat), after which the A. carotis located in the neck was exposed. A catheter inserted into this vessel enabled blood to be removed at specified times. The volume administered was 0.5 ml, while 0.9% NaCl was used as the administration solution. […] The resultant loss of blood was offset, immediately after removal of the sample, with 500 μl of 0.9% NaCl solution. Citrate plasma was obtained by centrifuging the blood at 1200×g for 10 min.

[4] = test system: lacZ-labeled human fibrosarcoma cell line (HT1080 AN PKZ12 K15-1); assay: Inhibiting metastasis in an animal model (lung metastases, lacZ-labeled human fibrosarcoma cells i.v.); assay type: in vivo, mice (strain CD1 nu/nu); settings: mice, 2 i.p. doses of 1.5 mg/kg daily from day −1 to day 21, lungs evaluated on day 22
Experimental: The influence of the inhibitor benzylsulfonyl-dSer-Ser-4-amidinobenzylamide on metastasis was investigated in female mice (strain CD1 nu/nu, approx. 25 g body weight, Charles River, Sulzfeld). […] from a lacZ-labeled human fibrosarcoma cell line (HT1080 AN PKZ12 K15-1, dissolved in 200 μl of PBS) were administered to the mice i.v. (Krüger et al., Cancer Metastasis Rev. 1998-99, 17, 285-294 and Krüger et al., Oncogene 1998, 16, 2419-2423). The mice in the treated group (n=17) were given 2 i.p. doses (in each case 1.5 mg/kg) of the inhibitor daily from day −1 (one day before the tumor cell inoculation) through to the 21st day (a total of 23 days). The mice in the control group (n=10) were correspondingly given 200 μl of pyrogen-free water containing 5% (v/v) ethanol. On day 22, the mice were sacrificed and the lungs were fixed in 2% formalin and 0.2% glutaraldehyde; after that, the lungs were stained with X-Gal (5-Br-4-Cl-3-indolyl-β-D-galactoside) and the number of lung metastases was determined.

[5] = after s.c. administration; following acylation of the D-Ser hydroxyl; cited from earlier work

Chain of trypsin (P00760 24-246 limits assumed): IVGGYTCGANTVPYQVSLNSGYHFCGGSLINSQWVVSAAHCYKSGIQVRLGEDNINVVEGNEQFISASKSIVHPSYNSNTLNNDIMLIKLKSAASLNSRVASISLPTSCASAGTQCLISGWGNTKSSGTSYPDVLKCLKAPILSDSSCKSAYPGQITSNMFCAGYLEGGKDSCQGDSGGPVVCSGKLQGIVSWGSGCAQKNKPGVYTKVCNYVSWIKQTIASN
Chain of plasmin (P00747 581-810, species assumed): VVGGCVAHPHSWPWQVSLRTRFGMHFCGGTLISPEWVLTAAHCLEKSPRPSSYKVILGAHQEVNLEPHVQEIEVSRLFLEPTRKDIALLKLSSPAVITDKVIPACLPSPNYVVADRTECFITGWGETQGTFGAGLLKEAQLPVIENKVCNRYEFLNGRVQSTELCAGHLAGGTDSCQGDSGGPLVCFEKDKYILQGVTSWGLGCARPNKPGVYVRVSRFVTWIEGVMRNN
Chain of plasmin (P00747 97-580 partner, species assumed): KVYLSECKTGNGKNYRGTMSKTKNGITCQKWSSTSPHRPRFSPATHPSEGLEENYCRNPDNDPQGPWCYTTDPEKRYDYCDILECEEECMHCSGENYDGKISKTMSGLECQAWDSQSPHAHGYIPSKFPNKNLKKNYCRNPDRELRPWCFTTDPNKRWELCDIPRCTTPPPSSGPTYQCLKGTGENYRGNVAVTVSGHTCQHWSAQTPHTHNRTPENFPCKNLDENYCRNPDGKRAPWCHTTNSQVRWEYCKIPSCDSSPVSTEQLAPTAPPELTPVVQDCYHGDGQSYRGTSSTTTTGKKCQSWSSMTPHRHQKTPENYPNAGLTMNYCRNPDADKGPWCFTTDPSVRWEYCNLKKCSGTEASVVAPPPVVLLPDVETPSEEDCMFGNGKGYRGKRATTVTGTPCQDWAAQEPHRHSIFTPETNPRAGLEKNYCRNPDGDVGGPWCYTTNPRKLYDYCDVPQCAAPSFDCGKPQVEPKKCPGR
Chain of trypsin (Bos taurus, UniProt P00760) (P00760 24-246 limits assumed): as the sequence (P00760 24-246 limits assumed) above

Row | Compound | Ki (plasmin) | Ki (thrombin) | Ki (uPA) | Ki (trypsin [1]) | Ki (sc urokinase) | Ki (trypsin [2]) | elimination (β phase) half-life t1/2 [3] | half-life [3] | number of lung metastases as compared with the control group (100%) [4] | relative bioavailability [5]
1 | N=C(N)c1ccc(CNC(=O)[C@H](CC(=O)O)NC(=O)[C@@H](CO)NS(=O)(=O)Cc2ccccc2)cc1 | – | – | – | – | 0.86 µM | – | – | – | – | –
2 | COC(=O)c1ccccc1CS(=O)(=O)N[C@H](CO)C(=O)NCC(=O)NCc1ccc(C(=N)N)cc1 [R=2-COOMe, X=CH, R1=H] | 38 µM | 4 µM | 0.083 µM | 0.4 µM | – | – | – | – | – | –
3 | N=C(N)c1ccc(CNC(=O)CNC(=O)[C@@H](CO)NS(=O)(=O)Cc2ccc(CC(=O)O)cc2)cc1 [Example 13, 4(HOOC—CH2)Benzylsulfonyl-dSer-Gly-4-Amba] | 27 µM | 60 µM | 0.13 µM | 0.3 µM | – | – | – | – | – | –
4 | N=C(N)c1ccc(CNC(=O)[C@H](CO)NC(=O)[C@@H](CO)NS(=O)(=O)Cc2cccc(C(=O)O)c2)cc1 [R=3-COOH, X=CH, R1=CH2—OH] | 4.2 µM | 200 µM | 0.075 µM | 0.058 µM | – | – | 25.8 min | – | – | –
5 | N=C(N)c1ccc(CNC(=O)CNC(=O)[C@@H](CO)NS(=O)(=O)Cc2ccccc2C(=O)O)cc1 [R=2-COOH, X=CH, R1=H] | 220 µM | 56 µM | 0.37 µM | 2.4 µM | – | – | – | – | – | –
6 | N=C(N)c1ccc(CNC(=O)CNC(=O)[C@@H](CO)NS(=O)(=O)Cc2cccc(C(=O)O)c2)cc1.O=C(O)C(F)(F)F [R=3-COOH, X=CH, R1=H, 3-(HOOC)Benzylsulfonyl-dSer-Gly-4-amidinobenzylamide×TFA] | 59 µM | 150 µM | 0.16 µM | – | – | – | – | 78 min | – | –
7 | N=C(N)c1ccc(CNC(=O)CNC(=O)[C@@H](CO)NS(=O)(=O)Cc2ccc(CN)cc2)cc1 [R=4-(NH2—CH2), X=CH, R1=H, 4-(Aminomethyl)benzylsulfonyl-dSer-Gly-4-amidinobenzylamide×2 TFA] | 7.4 µM | 8 µM | – | – | – | – | – | – | – | –
8 | N=C(N)c1ccc(CNC(=O)CNC(=O)[C@@H](CO)NS(=O)(=O)Cc2ccc(C(=O)O)cc2)cc1 [R=4-COOH, X=CH, R1=H] | 35 µM | 170 µM | 0.15 µM | 0.48 µM | – | – | 120 min | – | – | –
9 | N=C(N)c1ccc(CNC(=O)CNC(=O)[C@@H](CO)NS(=O)(=O)Cc2ccc(Cl)cc2)cc1 [R=4-Cl, X=CH, R1=H] | 32 µM | 7.9 µM | 0.032 µM | 0.35 µM | – | – | – | – | – | –
10 | N=C(N)c1ccc(CNC(=O)CNC(=O)[C@@H](CN)NS(=O)(=O)Cc2ccccc2)cc1 [Example 11, Benzylsulfonyl-dDap-Gly-4-Amba] | 9.6 µM | 10 µM | 0.18 µM | 0.18 µM | – | – | – | – | – | –
11 | COC(=O)c1cccc(CS(=O)(=O)N[C@H](CO)C(=O)NCC(=O)NCc2ccc(C(=N)N)cc2)c1 [R=3-COOMe, X=CH, R1=H] | 28 µM | 42 µM | 0.12 µM | 0.29 µM | – | – | – | – | – | –
12 | N=C(N)c1ccc(CNC(=O)[C@H](CCC(=O)O)NC(=O)[C@@H](CO)NS(=O)(=O)Cc2ccccc2)cc1 [Benzylsulfonyl-D-Ser-Glu-4-amidinobenzylamide×TFA] | – | – | – | – | 0.16 µM | – | – | – | – | –
13 | C[C@H](NC(=O)[C@@H](CO)NS(=O)(=O)Cc1ccc(C(=O)O)cc1)C(=O)NCc1ccc(C(=N)N)cc1 [R=4-COOH, X=CH, R1=CH3] | 3 µM | 2.3 µM | 0.038 µM | 0.013 µM | – | – | 39.6 min | – | – | –
14 | C[C@H](NC(=O)[C@@H](CO)NS(=O)(=O)Cc1cccc(C(=O)O)c1)C(=O)NCc1ccc(C(=N)N)cc1 [R=3-COOH, X=CH, R1=CH3] | 4.7 µM | 8.3 µM | 0.03 µM | 0.021 µM | – | – | 25.2 min | – | – | –
15 | CC(C)COC(=O)N[C@H](CO)C(=O)N[C@@H](C)C(=O)N[C@H](C=O)CCCNC(=N)N [iBuOCO-D-Ser-Ala-Arg-H] | – | – | – | – | – | – | – | – | – | 87%
16 | N=C(N)c1ccc(CNC(=O)CNC(=O)[C@@H](CO)NS(=O)(=O)Cc2ccc(Cl)c(Cl)c2)cc1 [R=3,4-di-Cl, X=CH, R1=H] | 32 µM | 8.3 µM | 0.11 µM | 0.6 µM | – | – | – | – | – | –
17 | Cc1ccc(CS(=O)(=O)N[C@H](CO)C(=O)NCC(=O)NCc2ccc(C(=N)N)cc2)cc1 [R=4-Me, X=CH, R1=H] | 18 µM | 8 µM | 0.058 µM | 0.21 µM | – | – | – | – | – | –
18 | CC(O)[C@H](NC(=O)[C@@H](CO)NS(=O)(=O)Cc1ccccc1)C(=O)NCc1ccc(C(=N)N)cc1 (stereo partly drawn) [R=H, X=CH, R1=CH(OH)CH3] | 1.4 µM | 4 µM | 0.11 µM | 0.03 µM | – | – | – | – | – | –
19 | N=C(N)c1ccc(CNC(=O)[C@H](CO)NC(=O)[C@@H](CO)NS(=O)(=O)Cc2ccc(C(=O)O)cc2)cc1 [R=4-COOH, X=CH, R1=CH2—OH] | 6.2 µM | 120 µM | 0.23 µM | 0.1 µM | – | – | 25.8 min | – | – | –
20 | N#Cc1ccc(CS(=O)(=O)N[C@H](CO)C(=O)NCC(=O)NCc2ccc(C(=N)N)cc2)cc1 [R=4-CN, X=CH, R1=CH] | 27 µM | 8.5 µM | 0.089 µM | 0.34 µM | – | – | – | – | – | –
21 | N=C(N)c1ccc(CNC(=O)CNC(=O)[C@@H](CO)NS(=O)(=O)Cc2ccccc2)cc1 [R=H, X=CH, R1=H, Benzylsulfonyl-D-Ser-Gly-4-amidinobenzylamide] | 11 µM | 13 µM | – | 0.15 µM | – | – | 17.4 min | – | – | –
22 | COC(=O)c1ccc(CS(=O)(=O)N[C@H](CO)C(=O)NCC(=O)NCc2ccc(C(=N)N)cc2)cc1 [R=4-COOMe, X=CH, R1=H] | 17 µM | 9.4 µM | 0.62 µM | 0.18 µM | – | – | – | – | – | –
23 | N=C(N)c1ccc(CNC(=O)CNC(=O)[C@@H](CO)NS(=O)(=O)Cc2ccc(F)cc2)cc1 [R=4-F, X=CH, R1=H] | 20 µM | 7.9 µM | 0.031 µM | 0.11 µM | – | – | – | – | – | –

More lines, in order of falling Ki (plasmin), values ahead:

Row | Ki (plasmin) | Ki (thrombin) | Ki (uPA) | Ki (trypsin [1]) | Ki (sc urokinase) | Ki (trypsin [2]) | elimination (β phase) half-life t1/2 [3] | half-life [3] | Compound | number of lung metastases as compared with the control group (100%) [4] | relative bioavailability [5]
24 | 1.1 µM | 0.1 µM | 0.061 µM | 0.011 µM | – | – | – | – | CC(OCc1ccccc1)[C@H](NC(=O)[C@@H](CO)NS(=O)(=O)Cc1ccccc1)C(=O)NCc1ccc(C(=N)N)cc1 (stereo partly drawn) [R=H, X=CH, R1=CH(OBzl)CH3] | – | –
25 | 0.96 µM | 4.2 µM | 0.23 µM | 0.02 µM | – | – | – | – | COC(=O)c1ccc(CS(=O)(=O)N[C@H](CO)C(=O)N[C@@H](CO)C(=O)NCc2ccc(C(=N)N)cc2)cc1 [R=4-COOMe, X=CH, R1=CH2—OH] | – | –
26 | 0.81 µM | 0.78 µM | 0.036 µM | 0.021 µM | – | – | 24 min | – | N=C(N)c1ccc(CNC(=O)[C@H](CN)NC(=O)[C@@H](CO)NS(=O)(=O)Cc2ccccc2)cc1 [R=H, X=CH, R1=CH2—NH2] | – | –
27 | 0.75 µM | 14 µM | 0.025 µM | – | – | – | – | 30 min | N=C(N)c1ccc(CNC(=O)[C@H](CO)NC(=O)[C@@H](CO)NS(=O)(=O)Cc2ccccc2)cc1 [R=H, X=CH, R1=CH2—OH, Benzylsulfonyl-dSer-Ser-4-amidinobenzylamide×TFA] | 4.6% | –
28 | 0.73 µM | 1.7 µM | 0.095 µM | – | – | 0.034 µM | – | – | Benzylsulfonyl-dSer-Lys(CO—O-PEG5000-OMe)-4-amidinobenzylamide×Acetate [Example 9] | – | –
29 | 0.53 µM | 1.4 µM | 0.042 µM | – | – | – | – | 52.8 min | N=C(N)c1ccc(CNC(=O)[C@H](CCCCNC(=O)COCC(=O)NCCOCCOCCOCCOCCOCCOCCOCCN)NC(=O)[C@@H](CO)NS(=O)(=O)Cc2ccccc2)cc1 [Example 10, Bzls-dSer-Lys(CO—CH2—O—CH2—CO—NH—CH2—CH2-Hexaethylene-glycol-CH2—CH2—NH2)-4-amidinobenzylamide×2 TFA] | – | –
30 | 0.4 µM | 8.5 µM | 0.11 µM | 0.025 µM | – | – | – | – | N=C(N)c1ccc(CNC(=O)[C@H](Cc2cnc[nH]2)NC(=O)[C@@H](CO)NS(=O)(=O)Cc2ccccc2)cc1 [Example 12, Benzylsulfonyl-dSer-His-4-Amba] | – | –
31 | 0.36 µM | 4.3 µM | – | – | – | – | – | 42 min | N=C(N)c1ccc(CNC(=O)[C@H](CCCCN)NC(=O)[C@@H](CO)NS(=O)(=O)Cc2ccccc2)cc1 [X=Lys, Benzylsulfonyl-dSer-Lys-4-amidinobenzylamide×2 TFA] | – | –
32 | 0.27 µM | 0.48 µM | 0.028 µM | 0.0068 µM | – | – | – | – | N=C(N)c1ccc(CNC(=O)[C@H](COCc2ccccc2)NC(=O)[C@@H](CO)NS(=O)(=O)Cc2ccccc2)cc1 [R=H, X=CH, R1=CH2—O(Bzl)] | – | –
33 | 0.2 µM | 4.7 µM | – | – | – | – | – | 36 min | N=C(N)c1ccc(CNC(=O)[C@H](CCCN=C(N)N)NC(=O)[C@@H](CO)NS(=O)(=O)Cc2ccccc2)cc1 [X=Arg, Benzylsulfonyl-dSer-Arg-4-amidinobenzylamide×2 TFA] | – | –

From patent US8476306B2, “Urokinase inhibitors, production and use thereof” (The Medicines Company (Leipzig) GmbH, priority 2002, dated 2013)
